From US8476253B2, “Amide derivative” (Daiichi Sankyo Company, Limited, priority 2009, dated 2013)
Structures can show the parent of a compound that is named as a salt.

Key:
neurokinin NK1 receptor = molecular target: T1, neurokinin NK1 receptor (Cavia porcellus, UniProt P30547); assay: Effect of suppressing substance P-induced airway contraction (in vivo, intratracheal administration); set-up: species or system guinea pig; details: guinea pigs, intratracheal administration 60 minutes before 20 μg/kg i.v. SP, AUC of increase in airway pressure over 10 minutes
T1 construct: Using healthy guinea pigs (body weight, 350 to 550 g; Hartley male guinea pigs); from tissue; host or cells: live anaesthetised Hartley male guinea pigs (airway, in vivo)
T1 sequence (P30547 whole entry): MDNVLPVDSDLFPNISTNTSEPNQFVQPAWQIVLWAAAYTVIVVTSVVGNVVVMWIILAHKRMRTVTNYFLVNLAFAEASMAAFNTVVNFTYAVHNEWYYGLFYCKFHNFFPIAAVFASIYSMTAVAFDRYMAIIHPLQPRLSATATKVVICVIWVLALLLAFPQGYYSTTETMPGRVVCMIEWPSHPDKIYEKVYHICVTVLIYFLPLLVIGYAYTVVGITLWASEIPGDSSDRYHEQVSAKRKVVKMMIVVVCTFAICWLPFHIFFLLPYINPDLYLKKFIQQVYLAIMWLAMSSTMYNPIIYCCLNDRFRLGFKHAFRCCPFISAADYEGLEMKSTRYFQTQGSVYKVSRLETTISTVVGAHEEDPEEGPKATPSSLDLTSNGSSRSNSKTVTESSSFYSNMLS
Experimental: (§1) Using healthy guinea pigs (body weight, 350 to 550 g; Hartley male guinea pigs), the effect of suppressing airway contraction induced by substance P (SP), which is an NK1 receptor agonist, was examined by a modified method of Konzett-Roessler (Naunyn-Schmiedebergs Arch. Exp. Pathol. Pharmakol. 195, 71 [1940]) using airway pressure as an indicator.
(§2) A tracheal cannula and a venous cannula were attached to a guinea pig anesthetized with pentobarbital (50 mg/mL solution, 0.40 to 0.50 mL/body, subcutaneous administration). An arterial cannula filled with heparin-containing physiological saline (100 U/mL) was further attached, and blood pressure and heart rate were monitored via an amplifier and an instantaneous heart rate meter. Subsequently, gallamine (20 mg/body, intravenous administration) was administered to terminate spontaneous breathing, and then 10 mL/kg of positive pressure breathing (Ugo-Basile Biological Research Apparatus, Cat. No. 7025) was rapidly performed at 60 times/min. The airway pressure during artificial breathing was detected with a pressure transducer (TP-200T or TP-400T; Nihon Kohden Corporation) attached to a side branch of the tracheal cannula, amplified (AP-601G; Nihon Kohden Corporation), and recorded in a recorder. After the airway pressure, blood pressure, and heart rate were stabilized, 20 μg/kg of SP was intravenously administered from the venous cannula to induce airway contraction, and the airway pressure was measured for the following 10 minutes.
The test substance was dissolved in a 5% glucose solution, a 0.5 mL/kg solution was intratracheally administered with an intratracheal administration apparatus (model 1A-1B; Penn-Century, Inc.) 60 minutes before stimulation with SP.
(§3) The AUC of increase in the airway pressure over 10 minutes after administration of SP was determined as the intensity of SP-induced airway contraction and calculated as an ID50 value from the inhibition rate based on the value of the control group (5% glucose solution intratracheal administration group).

muscarine M3 receptor = assay: Effect of suppressing methacholine-induced airway contraction (in vivo, intratracheal administration); set-up: species or system guinea pig; details: guinea pigs, intratracheal administration 60 minutes before 30 μg/kg i.v. methacholine; AUC of increase in airway pressure over 10 minutes
Experimental: as §1, with “methacholine,” for “substance P (SP),”, “a muscarine” for “an NK1”
as §2, with “mg/mL of” for “mg/mL”, “stabilized, 30” for “stabilized, 20”, “of methacholine” for “of SP”
A test substance was dissolved in 5% glucose solution, and a 0.5 mL/kg solution was administered intratracheally with an intratracheal administration apparatus (model 1A-1B; Penn-Century, Inc.) 60 minutes before stimulation with methacholine.
as §3, with “methacholine” for “SP”, “measured” for “determined”, “methacholine-induced” for “SP-induced”, “(a 5%” for “(5%”

neurokinin NK2 receptor = molecular target: T2, neurokinin NK2 receptor (Cavia porcellus, UniProt Q64077); assay: Effect of suppressing neurokinin A-induced airway contraction (in vivo, intratracheal administration); set-up: species or system guinea pig; details: guinea pigs, intratracheal administration 60 minutes before 4 μg/kg i.v. NKA; AUC of increase in airway pressure over 10 minutes
T2 construct: Using healthy guinea pigs (body weight, 350 to 550 g; Hartley male guinea pigs); from tissue; host or cells: live anaesthetised Hartley male guinea pigs (airway, in vivo)
T2 sequence (Q64077 1-402): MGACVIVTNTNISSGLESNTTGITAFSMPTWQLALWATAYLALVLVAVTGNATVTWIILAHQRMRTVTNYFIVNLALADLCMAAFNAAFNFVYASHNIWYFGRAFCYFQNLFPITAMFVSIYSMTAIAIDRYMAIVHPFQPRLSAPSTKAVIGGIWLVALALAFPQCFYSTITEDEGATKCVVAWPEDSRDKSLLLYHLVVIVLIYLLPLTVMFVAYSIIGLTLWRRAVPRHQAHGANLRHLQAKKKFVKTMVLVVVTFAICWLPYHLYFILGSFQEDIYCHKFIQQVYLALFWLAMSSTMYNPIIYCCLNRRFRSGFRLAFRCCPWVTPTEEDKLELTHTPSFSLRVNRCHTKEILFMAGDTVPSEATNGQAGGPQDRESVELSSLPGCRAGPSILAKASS
Experimental: as §1, with “neurokinin A (NKA),” for “substance P (SP),”, “NK2” for “NK1”
as §2, with “and” for “and then”, “stabilized, 4” for “stabilized, 20”, “of NKA” for “of SP”
The test substance was dissolved in a 5% glucose solution, and a 0.5 mL/kg solution was intratracheally administered with an intratracheal administration apparatus (model 1A-1B; Penn-Century, Inc.) 60 minutes before stimulation with NKA.
as §3, with “NKA” for “SP”, “NKA-induced” for “SP-induced”

substance P receptor = molecular target: T3, substance P receptor (Cavia porcellus, UniProt P30547); assay: Test for binding to guinea-pig substance P receptor (crude lung membrane sample); details: crude guinea-pig lung membrane sample, [3H]substance P; Ki from IC50 and Kd; read-out: Ki
T3 construct: A preparation of a crude lung membrane sample was prepared; from tissue; host or cells: guinea-pig lung (crude membrane sample)
T3 sequence (P30547 whole entry): as the sequence (P30547 whole entry) above
Experimental: A preparation of a crude lung membrane sample was prepared, and a test for binding of a test substance to the sample was performed according to the method described in EP0336230A2.
The binding effect of the test substance to a substance P receptor was calculated as an affinity (Ki) of the test substance for the substance P receptor from a 50% binding concentration (IC50) and an affinity (Kd) of [^3H]substance P for the substance P receptor.

human M3 receptor = molecular target: T4, human M3 receptor (Homo sapiens, UniProt P20309); assay: Test for binding to human M3 receptor
T4 construct: expressed in transfected cells; host or cells: CHO cells
T4 sequence (P20309 whole entry): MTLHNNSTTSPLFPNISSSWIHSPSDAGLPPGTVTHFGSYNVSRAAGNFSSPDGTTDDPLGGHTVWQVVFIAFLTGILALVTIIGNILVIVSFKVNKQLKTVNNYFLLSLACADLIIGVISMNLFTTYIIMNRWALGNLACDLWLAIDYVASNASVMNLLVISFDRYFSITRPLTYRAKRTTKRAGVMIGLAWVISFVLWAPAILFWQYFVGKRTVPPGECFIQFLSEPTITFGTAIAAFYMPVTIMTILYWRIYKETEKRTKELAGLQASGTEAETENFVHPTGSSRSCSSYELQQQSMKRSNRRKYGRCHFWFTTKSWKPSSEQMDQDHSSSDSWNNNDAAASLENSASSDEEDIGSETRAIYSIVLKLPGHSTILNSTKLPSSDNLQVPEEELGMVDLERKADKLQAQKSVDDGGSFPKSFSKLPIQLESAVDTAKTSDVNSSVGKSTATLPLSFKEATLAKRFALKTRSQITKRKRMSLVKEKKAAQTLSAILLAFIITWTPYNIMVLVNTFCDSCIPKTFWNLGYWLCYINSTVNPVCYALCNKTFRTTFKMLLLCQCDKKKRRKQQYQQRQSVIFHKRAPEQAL
Experimental: A solution of cryopreserved CHO cells expressing human M3 receptor was diluted with a buffer (50 mM tris-hydrochloride containing 0.5 mM of EDTA, pH 7.4) to obtain 5.0×10^5 of cells/mL and used as a crude membrane sample.
[N-methyl-^3H]-(−)-Scopolamine methyl chloride (GE Healthcare Japan Corporation) was diluted with 50 mM of tris-hydrochloride containing 0.5 mM of EDTA (pH 7.4), a test substance and 250 μL of the crude membrane sample solution were added to 250 μL of the mixture, and the mixture was incubated at room temperature for 60 minutes. […] The glass fiber filter paper was pretreated with a 0.1% polyethylenimine solution for 4 hours or longer to minimize non-specific binding. The filter collecting membrane components was transferred to a small-size plastic vial containing 3 mL of Pico-Fluor, and the radioactivity was measured with a liquid scintillation counter (Tri-Carb 2900TR or 2300TR; Perkin Elmer).
The effect of binding to the M3 receptor was calculated as the affinity (Ki) of the test substance for the M3 receptor from a 50% binding dose (IC50) and the affinity (Kd) of [N-methyl-^3H]-(−)-Scopolamine methyl chloride for the M3 receptor.

human NK2 receptor = molecular target: T5, human NK2 receptor (Homo sapiens, UniProt P21452); assay: Test for binding to human NK2 receptor
T5 construct: expressed in transfected cells; host or cells: COS cells
T5 sequence (P21452 1-398): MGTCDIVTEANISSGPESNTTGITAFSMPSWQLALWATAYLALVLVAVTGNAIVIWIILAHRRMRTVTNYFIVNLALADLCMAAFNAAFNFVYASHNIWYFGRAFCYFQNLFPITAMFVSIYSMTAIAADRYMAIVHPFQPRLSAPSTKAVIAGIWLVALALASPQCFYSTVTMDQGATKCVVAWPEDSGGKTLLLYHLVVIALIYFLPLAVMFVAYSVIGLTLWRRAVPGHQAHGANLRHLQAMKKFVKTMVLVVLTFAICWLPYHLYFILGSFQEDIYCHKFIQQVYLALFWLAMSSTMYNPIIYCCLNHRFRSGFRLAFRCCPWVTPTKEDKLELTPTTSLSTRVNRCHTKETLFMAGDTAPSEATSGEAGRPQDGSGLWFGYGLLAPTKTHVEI
Experimental: A solution of cryopreserved COS cells expressing human NK2 receptor was diluted with a buffer (50 mM tris-hydrochloride containing 0.04% of bovine serum albumin [BSA], pH 7.4) to obtain a concentration of 5.0×10^5 cells/mL and used as a crude membrane sample.
[^3H]SR 48968 (GE Healthcare Japan Corporation) was diluted with a mixture of 50 mM of tris-hydrochloride (pH 7.4), 6 mM of manganese chloride tetrahydrate, 800 μg/mL of BSA, 8 μg/mL of chymostatin, 8 μg/mL of leupeptin, 80 μg/mL of bacitracin, and 20 μg/mL of phosphoramidon. […] After the reaction, the membrane components were collected on a GF/B glass fiber filter paper (Whatman; Biomedical Research and Development Laboratories, Inc.) with an automated filtration system (Brandel; Biomedical Research and Development Laboratories, Inc.). The glass fiber filter paper was pretreated with a 0.1% polyethylenimine solution for 4 hours or longer to minimize non-specific binding. The filter collecting the membrane components was transferred to a small-size plastic vial containing 3 mL of Pico-Fluor, and the radioactivity was measured with a liquid scintillation counter (Tri-Carb 2900TR or 2300TR; Perkin Elmer).
The effect of binding to the NK2 receptor was calculated as the affinity (Ki) of the test substance for the NK2 receptor from a 50% binding dose (IC50) and the affinity (Kd) of [^3H]SR 48968 for the NK2 receptor.

Molecule CN(CCN1CCC(OC(=O)Nc2ccccc2-c2ccccc2)CC1)C(=O)CCCCCCNc1ccc(C(=O)N(C)CCCN(C)C(=O)CO[C@H]2Cc3ccccc3C23CCN(CC[C@@]2(c4ccc(F)cc4)CN(C(=O)c4cc(C(F)(F)F)cc(C(F)(F)F)c4)CO2)CC3)cc1.Cl.Cl.Cl [Example 39] has an ID50 (neurokinin NK1 receptor) of 0.0388 mg/kg, an ID50 (muscarine M3 receptor) of 0.0559 mg/kg and an ID50 (neurokinin NK2 receptor) of 0.0336 mg/kg.

Molecule CN(CCN1CCC(OC(=O)Nc2ccccc2-c2ccccc2)CC1)C(=O)CCCCCNc1ccc(C(=O)N(C)CCCN(C)C(=O)CO[C@H]2Cc3ccccc3C23CCN(CC[C@@]2(c4ccc(F)cc4)CN(C(=O)c4cc(C(F)(F)F)cc(C(F)(F)F)c4)CO2)CC3)c(Cl)c1 [Example 85, 1-(2-{[6-({4-[{3-[({[(2S)-1′-{2-[(5R)-3-[3,5-Bis(trifluoromethyl)benzoyl]-5-(4-fluorophenyl)-1,3-oxazolidin-5-yl]ethyl}-2,3-dihydrospiro[indene-1,4′-piperidin]-2-yl]oxy}acetyl)(methyl)amino]propyl}(methyl)carbamoyl]-3-chlorophenyl}amino)hexanoyl](methyl)amino}ethyl)piperidin-4-yl biphenyl-2-ylcarbamate trihydrochloride] has an ED50 (neurokinin NK1 receptor; guinea pig, read-out: ID50 (the source's name)) of 0.0373 mg/kg, a Ki (substance P receptor) of 2.2 nM and an ID50 (muscarine M3 receptor) of 0.0327 mg/kg. It also gave a Ki (human M3 receptor) of 1.9 nM and a Ki (human NK2 receptor) of 1 nM.

Work on CN(CCN1CCC(OC(=O)Nc2ccccc2-c2ccccc2)CC1)C(=O)CCCCCNc1nc(CC(=O)N(C)CCCN(C)C(=O)CO[C@H]2Cc3ccccc3C23CCN(CC[C@@]2(c4ccc(F)cc4)CN(C(=O)c4cc(C(F)(F)F)cc(C(F)(F)F)c4)CO2)CC3)cs1 [Example 88, 1-{2-[{6-[(4-{2-[{3-[({[(2S)-1′-{2-[(5R)-3-[3,5-Bis(trifluoromethyl)benzoyl]-5-(4-fluorophenyl)-1,3-oxazolidin-5-yl]ethyl}-2,3-dihydrospiro[indene-1,4′-piperidin]-2-yl]oxy}acetyl)(methyl)amino]propyl}(methyl)amino]-2-oxoethyl}-1,3-thiazol-2-yl)amino]hexanoyl}(methyl)amino]ethyl}piperidin-4-yl biphenyl-2-ylcarbamate trihydrochloride] yielded a Ki (substance P receptor) of 1.1 nM, an ID50 (muscarine M3 receptor) of 0.006 mg/kg and a Ki (human M3 receptor) of 0.31 nM. The Ki (human NK2 receptor) was 0.72 nM.
